The record followed here is article PMC7736581, “Activation of the IRE1 RNase through remodeling of the kinase front pocket by ATP-competitive ligands” (Nature Communications, 2020).

The subject of experiment [1] is T1, IRE1 (endogenous, KMS-11).
T1 construct: endogenous full-length in KMS-11 cells
Kind of experiment: cells. Details: XBP1s mRNA by branched DNA assay in KMS-11 cell lysates after compound treatment. The note with it: Homo sapiens, KMS-11, 4 h. Here is the method: 15-20k KMS-11 cells in RPMI growth media were seeded into 96-well plates and treated with compounds or DMSO control over a period of 4 h the following day. RNA levels of XBP1s and DGAT2 in KMS-11 cell lysates were measured using the QuantiGene 2.0 bDNA assay technology (Thermofisher). See Supplementary Table 4 for sequences of relevant capture probes. Data analysis was carried out against an assay background control with no cell lysate (no-RNA control). In the case of AMG-18, cells were also stimulated with thapsigargin (Tg, 100 nM) 30 min after compound addition. No Tg was used when treating cells with all other compounds. Samples were run in duplicate. To investigate whether this peculiar conformation had any role in the mechanism of activation of G-1749, we evaluated different tails to substitute the ethyl carbamate on the naphthyl moiety (Fig. 3, Supplementary Table 2). […] This is likely due to clashes with residues lining the front pocket, which in turn would force the tails to occupy the back pocket and break the salt bridge, thereby causing RNase inhibition. […] Experiments in KMS-11 cells (Fig. 3b, c, right panels) confirmed the effect of these tail modifications on IRE1 RNase activation. […] The chemical substituents tolerated by the front pocket seem to be very limited: even a minor substitution of the carbamate oxygen atom to a larger [compound left out], from ethyl carbamate to propyl amide (compound 6), or from methyl carbamate to methyl or ethyl amide (compound 4 or 5, respectively), or increasing the tail length by one atom, from ethyl to propyl carbamate (compound 11), is enough to impart a switch from activation to inhibition (Fig. 3b, c). […] RNA cleavage was measured by a kinetic fluorescence assay using an XBP1-like RNA hairpin substrate and IRE1 LKR construct (Q470-L977). Background from the no-protein control was subtracted from signal before calculating fold change. Source data are provided as a Source Data file. Data are presented as the mean for measurements from two independent experiments (n = 2). c RNA levels for IRE1 RNase product XBP1s measured by bDNA assay of lysates from KMS-11 cells treated with compounds for 4 h. Background from the no-RNA control was subtracted from signal before calculating fold change. Source data are provided as a Source Data file. Data are presented as the mean for measurements from two independent experiments (n = 2). d, e Analytical Ultracentrifugation sedimentation velocity (SV-AUC) experiments for (d), IRE1 LKR (Q470-L977) unphosphorylated and autophosphorylated and (e), IRE1 LKR unphosphorylated in the presence of slight excess G-9807 and G-1749. Calculated sedimentation coefficients for IRE1 monomer (3.1 svedbergs) and dimer (4.6 svedbergs) are highlighted by dotted lines. Source data are provided as a Source Data file.

In experiment [2] the target is Inositol-Requiring Enzyme 1 (IRE1) (Homo sapiens, UniProt O75460). Kind of experiment: biochemical. Details: gene ERN1; IRE1 cytoplasmic kinase-RNase construct; kinetic fluorescence RNA cleavage (FAM/BHQ XBP1 stem-loop) by IRE1 LKR Q470-L977. Here is the method:
A 5′-Carboxyfluorescein (FAM)-and 3′-Black Hole Quencher (BHQ)-labeled single stem-loop mini-substrate containing XBP1 sequence (sequence reported in Supplementary Table 4) was used as substrate for cleavage by IRE1 LKR (Q470-L977) or IRE1 KR (G547-L977) in 20 mM HEPES pH 7.5, 50 mM potassium acetate, 1 mM magnesium acetate, 1 mM dithiothreitol, 0.05% v/v TritonX-100. Concentrations were as follows: 8 nM IRE1 LKR and 200 nM RNA substrate; 22 nM IRE1 KR-0P and 200 nM RNA substrate; 2 nM IRE1 KR 3P and 500 nM RNA substrate. RNA cleavage was measured kinetically over an hour at room temperature as an increase in fluorescence. The final reaction was carried out in 20 µL in 384-well plates. Samples were run in duplicate. To investigate whether this peculiar conformation had any role in the mechanism of activation of G-1749, we evaluated different tails to substitute the ethyl carbamate on the naphthyl moiety (Fig. 3, Supplementary Table 2). […] This is likely due to clashes with residues lining the front pocket, which in turn would force the tails to occupy the back pocket and break the salt bridge, thereby causing RNase inhibition. […] Experiments in KMS-11 cells (Fig. 3b, c, right panels) confirmed the effect of these tail modifications on IRE1 RNase activation. […] The chemical substituents tolerated by the front pocket seem to be very limited: even a minor substitution of the carbamate oxygen atom to a larger [compound left out], from ethyl carbamate to propyl amide (compound 6), or from methyl carbamate to methyl or ethyl amide (compound 4 or 5, respectively), or increasing the tail length by one atom, from ethyl to propyl carbamate (compound 11), is enough to impart a switch from activation to inhibition (Fig. 3b, c). […] RNA cleavage was measured by a kinetic fluorescence assay using an XBP1-like RNA hairpin substrate and IRE1 LKR construct (Q470-L977). Background from the no-protein control was subtracted from signal before calculating fold change. Source data are provided as a Source Data file. Data are presented as the mean for measurements from two independent experiments (n = 2). c RNA levels for IRE1 RNase product XBP1s measured by bDNA assay of lysates from KMS-11 cells treated with compounds for 4 h. Background from the no-RNA control was subtracted from signal before calculating fold change. Source data are provided as a Source Data file. Data are presented as the mean for measurements from two independent experiments (n = 2). d, e Analytical Ultracentrifugation sedimentation velocity (SV-AUC) experiments for (d), IRE1 LKR (Q470-L977) unphosphorylated and autophosphorylated and (e), IRE1 LKR unphosphorylated in the presence of slight excess G-9807 and G-1749. Calculated sedimentation coefficients for IRE1 monomer (3.1 svedbergs) and dimer (4.6 svedbergs) are highlighted by dotted lines. Source data are provided as a Source Data file.

Experiment [3] concerns the target IRE1 LKR (Q470-L977), unphosphorylated (human) (UniProt O75460). Kind of experiment: AUC; sedimentation velocity; unphosphorylated IRE1 LKR at 3.3, 10 and 30 µM with a slight (ca. 15% molar) excess of G-9807 (4, 12, 35 µM); 25 mM HEPES pH 7.5, 250 mM NaCl, 1 mM TCEP; 20 °C; fit to a monomer-dimer equilibrium model; monomer to dimer.
Experiment [4] addresses IRE1 LKR (Q470-L977), autophosphorylated (human) (UniProt O75460). Briefly: AUC; sedimentation velocity; IRE1 LKR at 3.3, 10 and 30 µM without compound; 25 mM HEPES pH 7.5, 250 mM NaCl, 1 mM TCEP; 20 °C, 45,000 rpm, A280; fit to a monomer-dimer equilibrium model (Sedanal); monomer to dimer.
Where [5] appears, read: XBP1s mRNA decrease, read-out: EC50 (KMS-11 bDNA assay, XBP1s), inhibitors.
Setting [6] is: RNase inhibition, read-out: EC50 (RNase biochemical assay), inhibitors.
[7] abbreviates: RNase inhibition, inhibitor, read-out: EC50 (RNase biochemical assay), inhibitors.
[8] abbreviates: XBP1s mRNA increase, read-out: EC50 (KMS-11 bDNA assay, XBP1s), activators.
The mark [9] stands for this setting: RNase activation, read-out: EC50 (RNase biochemical assay), activators.

Like-named read-outs stand apart in the source and are kept apart here.

Sequence of Inositol-Requiring Enzyme 1 (IRE1) (O75460 547-977): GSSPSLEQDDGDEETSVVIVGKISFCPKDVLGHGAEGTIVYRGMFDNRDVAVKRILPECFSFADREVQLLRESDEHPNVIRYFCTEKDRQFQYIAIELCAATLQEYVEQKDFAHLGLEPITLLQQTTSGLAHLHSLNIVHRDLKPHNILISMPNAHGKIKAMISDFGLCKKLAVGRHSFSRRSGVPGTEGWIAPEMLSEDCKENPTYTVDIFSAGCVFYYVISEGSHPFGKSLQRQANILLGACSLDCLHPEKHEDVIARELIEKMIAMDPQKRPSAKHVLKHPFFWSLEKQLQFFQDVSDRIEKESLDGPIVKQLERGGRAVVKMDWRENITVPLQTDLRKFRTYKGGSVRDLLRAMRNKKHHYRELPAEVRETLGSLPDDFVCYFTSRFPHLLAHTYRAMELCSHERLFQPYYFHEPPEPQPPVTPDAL

The EC50 is the concentration that produces a half-maximal response. With `CCCC(=O)Nc1cccc2c(Oc3ncccc3-c3ccnc(N[C@H]4CCCNC4)n3)c(C)ccc12` [compound 6], the EC50 in experiment [1] (setting [5]) was 0.221 ± 0.052 µM; in experiment [2] (setting [6]) it was 0.022 ± 0.035 µM. As to `CCCOC(=O)Nc1cccc2c(Oc3ncccc3-c3ccnc(N[C@H]4CCCNC4)n3)c(C)ccc12` [compound 11], the EC50 in experiment [1] (setting [5]) stood at 0.234 ± 0.078 µM; in experiment [2] (setting [6]), 0.029 ± 0.006 µM.

By stoichiometry N is commonly meant a count of units in the complex or per binding partner. In turn, “IRE1 LKR (Q470-L977), unphosphorylated (from UniProt O75460 470-977) (domain or fragment)” displayed a stoichiometry N in experiment [3] of 2. `Cc1ccc2c(NC(=O)C#CC(C)(C)C)cccc2c1Oc1ncccc1-c1ccnc(N[C@H]2CCCNC2)n1` [compound 10, 10]: the half-maximal effective concentration (EC50) turned out to be 0.38 ± 0.109 µM in experiment [1] (setting [5]) and 0.035 ± 0.005 µM in experiment [2] (setting [7]).

For `CCC(=O)Nc1cccc2c(Oc3ncccc3-c3ccnc(N[C@H]4CCCNC4)n3)c(C)ccc12` [compound 5], the results for the EC50 in experiment [1] (setting [5]) and in experiment [2] (setting [6]) were 0.816 ± 0.346 µM and 0.028 ± 0.005 µM, respectively. Turning to `Cc1ccc2c(NC(=O)C#CCC(C)(C)C)cccc2c1Oc1ncccc1-c1ccnc(N[C@H]2CCCNC2)n1` [compound 12, 12], the EC50 in experiment [1] (setting [5]) came to 0.645 ± 0.111 µM; in experiment [2] (setting [7]) it was 0.052 ± 0.012 µM. With `Cc1ccc2c(NC(=O)OC(C)C)cccc2c1Oc1ncccc1-c1ccnc(N[C@H]2CCCNC2)n1` [compound 7, 7], the EC50 is 0.456 ± 0.226 µM in experiment [1] (setting [5]) and 0.036 ± 0.005 µM in experiment [2] (setting [7]). The Kd is the concentration at which binding is half-saturated. As to “IRE1 LKR (Q470-L977), autophosphorylated (from UniProt O75460 470-977) (domain or fragment)”, in experiment [4], the dissociation constant Kd stood at 67 µM and the stoichiometry N came to 2. `Cc1ccc2c(NC(=O)OCC(C)C)cccc2c1Oc1ncccc1-c1ccnc(N[C@H]2CCCNC2)n1` [compound 8, 8]: the half-maximal effective concentration (EC50) in experiment [1] (setting [5]) came out at 0.465 ± 0.154 µM; in experiment [2] (setting [7]), 0.018 ± 0.003 µM. In the same order, the values of `Cc1ccc2c(NC(=O)OCC(C)(C)C)cccc2c1Oc1ncccc1-c1ccnc(N[C@H]2CCCNC2)n1` [compound 9, 9] are 1.05 ± 0.372 µM and 0.068 ± 0.021 µM.

Consider `C/C=C/C(=O)Nc1cccc2c(Oc3ncccc3-c3ccnc(N[C@H]4CCCNC4)n3)c(C)ccc12` [compound 1], for which the 50% effective concentration (EC50) turned out to be 0.331 ± 0.128 µM in experiment [1] (setting [8]) and 0.007 ± 0.001 µM in experiment [2] (setting [9]). The matching figures for `COC(=O)Nc1cccc2c(Oc3ncccc3-c3ccnc(N[C@H]4CCCNC4)n3)c(C)ccc12` [compound 2]: 3.37 ± 0.709 µM and 0.004 ± 0.004 µM.

For `CC(=O)Nc1cccc2c(Oc3ncccc3-c3ccnc(N[C@H]4CCCNC4)n3)c(C)ccc12` [compound 4], the values for the EC50 in experiment [1] (setting [5]) and in experiment [2] (setting [6]) were 0.649 ± 0.241 µM and 0.008 ± 0.002 µM, respectively.

`Cc1ccc2c(N)cccc2c1Oc1ncccc1-c1ccnc(N[C@H]2CCCNC2)n1` [compound 3, 3]: the concentration for a half-maximal effect (EC50) was determined as 3.26 ± 0.48 µM in experiment [1] (setting [8]) and 0.031 ± 0.023 µM in experiment [2] (RNase activation, activator, read-out: EC50 (RNase biochemical assay), activators).
